Test results taken from article PMC7615311 (Science (New York, N.Y.), 2023).

Key:
[1] = test system: HeLa cells; assay: decryptM protein acetylation profiling in HeLa cells; format: cell-based, human
[2] = test system: HeLa cells; assay: decryptM phosphoproteome profiling in HeLa cells; format: cell-based, human
[3] = test system: CBP and p300; assay: decryptM; format: cell-based, human; settings: read-out: EC50 of inhibition of (auto-)acetylation sites on CBP and p300; HeLa
[4] = test system: SNRNP40; assay: decryptM, acetylation of SNRNP40 in HeLa cells; format: cell-based, human; settings: read-out: EC50 of SNRNP40 acetylation site
[5] = test system: SU-DHL-4 cells; assay: FACS analysis of cytotoxicity; format: cell-based, human; settings: SU-DHL-4, FACS
[6] = test system: cortactin (CTTN); assay: decryptM, acetylation of HDAC6 substrate cortactin in HeLa cells; format: cell-based, human; settings: within the tested dose range
[7] = target: ATR (Homo sapiens, UniProt Q13535); assay: Kinobeads assay, ATR; format: binding
[8] = test system: BT-474; assay: growth reduction, BT-474; format: cell-based; settings: Homo sapiens, BT-474, read-out: reduced growth
[9] = test system: SK-BR-3; assay: growth reduction, SK-BR-3; format: cell-based; settings: Homo sapiens, SK-BR-3, read-out: reduced growth
[10] = test system: MDA-MB-175; assay: growth reduction, MDA-MB-175; format: cell-based; settings: Homo sapiens, read-out: reduced growth
[11] = test system: BT-474 cells; assay: decryptM phosphoproteome profiling in BT-474 cells; format: cell-based, human
[12] = test system: SK-BR-3 cells; assay: decryptM phosphoproteome profiling in SK-BR-3 cells; format: cell-based, human
[13] = test system: MDA-MB-175 cells; assay: decryptM phosphoproteome profiling in MDA-MB-175 cells; format: cell-based, human
[14] = test system: SHC1; assay: decryptM, pY427 on SHC1 in SK-BR-3 cells; format: cell-based; settings: Homo sapiens, SK-BR-3, read-out: potency of inhibition of pY427 on SHC1
[15] = test system: AKT1S1; assay: decryptM, pT246 on AKT1S1 in SK-BR-3 cells; format: cell-based; settings: Homo sapiens, SK-BR-3, read-out: potency of inhibition of pT246 on AKT1S1
[16] = test system: A549 lung cancer cells; assay: decryptM phosphoproteome profiling in A549 cells; format: cell-based, human
[17] = test system: KYSE-520 esophageal squamous cell carcinoma cell line; assay: decryptM phosphoproteome profiling in KYSE-520 cells; format: cell-based, human; settings: KYSE-520, 30 min
[18] = test system: K562 chronic myelogenous leukemia cells; assay: decryptM phosphoproteome profiling in K562 cells; format: cell-based, human; settings: for number of regulated phosphopeptides: K562, 30 min drug treatment
[19] = test system: SU-DHL-4 cells; format: cell-based, human; settings: SU-DHL-4, live cell imaging
[20] = test system: SU-DHL-4 (B-cell lymphoma); assay: viability assay, SU-DHL-4; format: cell-based, human
[21] = test system: Ramos (Burkitt's Lymphoma); assay: viability assay, Ramos; format: cell-based, human
[22] = test system: ARH-77 plasma leukemia line; assay: viability assay, ARH-77; format: cell-based, human
[23] = test system: SU-DHL-4 cells; assay: two-dimensional decryptM phosphoproteome analysis in SU-DHL-4; format: cell-based, human; settings: dose-response at eight time points between 0 min and 24 h
[24] = test system: Ramos cells; assay: two-dimensional decryptM phosphoproteome analysis in Ramos; format: cell-based, human; settings: dose-response at eight time points between 0 min and 24 h
[25] = test system: ARH-77 cells; assay: two-dimensional decryptM phosphoproteome analysis in ARH-77; format: cell-based, human; settings: dose-response at eight time points between 0 min and 24 h
[26] = test system: MKI67; assay: decryptM, phosphorylation of MKI67 in SU-DHL-4; format: cell-based, human
[27] = test system: SYK; assay: decryptM, phosphorylation of SYK in SU-DHL-4; format: cell-based, human
[28] = test system: RFTN1; assay: decryptM, RFTN1 phosphorylation at S467 in SU-DHL-4; format: cell-based, human

ATR, sequence (Q13535 whole entry): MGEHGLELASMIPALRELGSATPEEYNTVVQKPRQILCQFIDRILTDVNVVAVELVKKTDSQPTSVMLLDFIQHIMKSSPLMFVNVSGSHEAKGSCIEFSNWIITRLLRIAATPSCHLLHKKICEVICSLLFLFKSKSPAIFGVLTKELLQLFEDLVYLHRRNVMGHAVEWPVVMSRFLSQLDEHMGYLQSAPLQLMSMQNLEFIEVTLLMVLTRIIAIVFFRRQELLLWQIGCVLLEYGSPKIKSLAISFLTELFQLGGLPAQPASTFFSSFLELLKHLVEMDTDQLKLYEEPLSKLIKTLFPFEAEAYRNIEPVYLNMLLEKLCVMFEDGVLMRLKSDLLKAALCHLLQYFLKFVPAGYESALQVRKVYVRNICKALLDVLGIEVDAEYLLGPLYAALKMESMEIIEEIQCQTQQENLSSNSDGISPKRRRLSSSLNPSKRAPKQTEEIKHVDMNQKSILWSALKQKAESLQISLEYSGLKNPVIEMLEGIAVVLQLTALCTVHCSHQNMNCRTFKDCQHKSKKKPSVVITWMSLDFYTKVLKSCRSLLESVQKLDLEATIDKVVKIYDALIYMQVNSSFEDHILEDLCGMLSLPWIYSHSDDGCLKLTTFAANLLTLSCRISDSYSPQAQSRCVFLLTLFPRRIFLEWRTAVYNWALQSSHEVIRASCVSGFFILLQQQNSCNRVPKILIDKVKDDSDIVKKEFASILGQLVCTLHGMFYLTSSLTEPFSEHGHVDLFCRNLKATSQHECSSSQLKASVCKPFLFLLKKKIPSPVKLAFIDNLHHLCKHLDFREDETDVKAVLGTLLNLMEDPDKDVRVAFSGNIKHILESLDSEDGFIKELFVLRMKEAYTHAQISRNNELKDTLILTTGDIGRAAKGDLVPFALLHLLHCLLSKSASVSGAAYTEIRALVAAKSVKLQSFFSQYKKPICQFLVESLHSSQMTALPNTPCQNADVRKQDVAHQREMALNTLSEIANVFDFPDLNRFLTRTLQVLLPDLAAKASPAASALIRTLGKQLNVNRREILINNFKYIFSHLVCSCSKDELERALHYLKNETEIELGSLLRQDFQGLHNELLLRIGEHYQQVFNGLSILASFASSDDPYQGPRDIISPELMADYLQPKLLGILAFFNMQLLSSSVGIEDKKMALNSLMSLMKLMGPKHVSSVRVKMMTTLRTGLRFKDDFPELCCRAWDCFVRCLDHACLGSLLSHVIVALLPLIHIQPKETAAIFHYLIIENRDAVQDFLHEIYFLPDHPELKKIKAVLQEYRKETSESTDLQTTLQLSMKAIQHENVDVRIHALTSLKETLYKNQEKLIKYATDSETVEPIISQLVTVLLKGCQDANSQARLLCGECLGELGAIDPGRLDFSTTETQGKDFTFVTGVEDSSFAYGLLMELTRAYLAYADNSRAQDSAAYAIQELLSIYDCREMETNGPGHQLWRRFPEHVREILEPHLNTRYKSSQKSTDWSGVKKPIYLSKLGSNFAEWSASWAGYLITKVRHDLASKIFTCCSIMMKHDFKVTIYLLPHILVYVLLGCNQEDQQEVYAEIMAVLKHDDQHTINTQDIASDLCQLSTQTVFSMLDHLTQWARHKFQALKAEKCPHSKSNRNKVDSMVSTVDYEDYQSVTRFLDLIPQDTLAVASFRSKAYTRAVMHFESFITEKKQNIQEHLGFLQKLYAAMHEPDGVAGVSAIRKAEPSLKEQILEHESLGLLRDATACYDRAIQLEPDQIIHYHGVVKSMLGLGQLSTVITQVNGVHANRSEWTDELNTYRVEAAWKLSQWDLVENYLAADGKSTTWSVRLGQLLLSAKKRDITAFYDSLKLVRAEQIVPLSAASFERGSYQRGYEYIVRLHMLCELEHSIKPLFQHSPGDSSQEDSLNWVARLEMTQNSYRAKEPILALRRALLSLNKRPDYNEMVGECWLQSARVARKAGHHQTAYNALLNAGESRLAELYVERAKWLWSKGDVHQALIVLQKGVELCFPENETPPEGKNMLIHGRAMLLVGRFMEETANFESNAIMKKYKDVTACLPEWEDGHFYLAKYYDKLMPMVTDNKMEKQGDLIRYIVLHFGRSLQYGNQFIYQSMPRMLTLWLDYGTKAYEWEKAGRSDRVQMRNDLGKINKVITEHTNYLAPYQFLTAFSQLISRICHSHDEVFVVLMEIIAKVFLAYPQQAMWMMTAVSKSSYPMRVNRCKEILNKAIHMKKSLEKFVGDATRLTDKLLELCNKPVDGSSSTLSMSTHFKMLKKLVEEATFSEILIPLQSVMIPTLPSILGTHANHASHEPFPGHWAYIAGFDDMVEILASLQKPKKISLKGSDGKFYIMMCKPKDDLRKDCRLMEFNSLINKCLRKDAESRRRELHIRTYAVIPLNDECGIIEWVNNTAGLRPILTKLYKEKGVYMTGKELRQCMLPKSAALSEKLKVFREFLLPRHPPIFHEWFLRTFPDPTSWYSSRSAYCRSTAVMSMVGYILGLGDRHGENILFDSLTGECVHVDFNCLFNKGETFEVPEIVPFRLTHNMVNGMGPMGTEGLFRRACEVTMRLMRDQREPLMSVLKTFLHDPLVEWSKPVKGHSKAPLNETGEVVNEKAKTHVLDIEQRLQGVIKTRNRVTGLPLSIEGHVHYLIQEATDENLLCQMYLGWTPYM

CNC(=O)Nc1ccc2c(c1)CC[C@@]21OC(=O)N(CC(=O)N(Cc2ccc(F)cc2)[C@@H](C)C(F)(F)F)C1=O [A485]
number of downregulated acetylated peptides [1]: 59 | impact on the phosphoproteome [2]: did not have much impact | EC50 [3]: 50 to 200 nM | EC50 [4]: 50 nM

O=C1/C(=C/c2ccccc2)C(NC2CCCCC2)c2ccccc21 (stereo not shown) [BCI]
cell killing by the drug alone [5]: effective in killing cells

C#Cc1cccc(Nc2ncnc3cc(OC)c(OCCCCCCC(=O)NO)cc23)c1 [CUDC-101]
higher affinity for HDAC targets than for kinase targets in cells ([1]; acetylated vs phosphorylated peptides): 100 fold | number of upregulated acetylated peptides ([1]; of the 1,133 measured acetylated peptides): 139 | effect on CTTN acetylation [6]: only at substantially higher concentrations

Cn1c(=O)n(-c2ccc(C(C)(C)C#N)cc2)c2c3cc(-c4cnc5ccccc5c4)ccc3ncc21 [Dactolisib]
Kd [7]: 91 nM

CS(=O)(=O)CCNCc1ccc(-c2ccc3ncnc(Nc4ccc(OCc5cccc(F)c5)c(Cl)c4)c3c2)o1 [Lapatinib]
EC50 [8]: 158 nM | EC50 [9]: 234 nM | EC50 [10]: 695 nM | number of regulated phosphopeptides [11]: hundreds | number of regulated phosphopeptides [12]: five | number of regulated phosphopeptides [13]: hundreds | EC50 [14]: 18 nM | EC50 [15]: 11 nM

NC1(c2ccc(-c3nc4ccn5c(=O)[nH]nc5c4cc3-c3ccccc3)cc2)CCC1 [MK-2206]
ERK1 activity via phosphorylation at Y187 [16]: induced ERK1 activity | phosphorylation of the AKT substrates AKT1S1 (T2469) and GSK3B (S9) [16]: reduced phosphorylation

CC1(N)CCN(c2cnc(-c3cccc(Cl)c3Cl)c(N)n2)CC1 [SHP099]
phosphorylation of the EGFR substrate GAB1 [17]: diminished in a dose-dependent fashion | phosphorylation sites indicating EGFR activity [17]: does not inhibit

Nc1ccn([C@@H]2O[C@H](CO)[C@@H](O)[C@@H]2O)c(=O)n1 [cytarabine]
EC50 ([18]; Homo sapiens, K562, 0.5 h, read-out: EC50 of potently regulated phosphopeptides): < 100 nM | number of regulated phosphopeptides [18]: 23

COc1cc(Nc2ncc(F)c(Nc3ccc4c(n3)N(COP(=O)(O)O)C(=O)C(C)(C)O4)n2)cc(OC)c1OC [fostamatinib]
effect of inhibitor pre-treatment on RTX-mediated cytotoxicity [19]: clear reduction of RTX-mediated cytotoxicity | effect of combination on cytotoxic effect of RTX [5]: diminished the cytotoxic effect of RTX

CC(=O)O[C@H]1C(=O)[C@@]2(C)[C@H]([C@H](OC(=O)c3ccccc3)[C@]3(O)C[C@H](OC(=O)[C@H](O)[C@@H](NC(=O)c4ccccc4)c4ccccc4)C(C)=C1C3(C)C)[C@]1(OC(C)=O)CO[C@@H]1C[C@@H]2O [paclitaxel]
number of regulated phosphopeptides [18]: 7

C/C=C1\NC(=O)[C@H]2CSSCC/C=C/[C@H](CC(=O)N[C@H](C(C)C)C(=O)N2)OC(=O)[C@H](C(C)C)NC1=O [romidepsin]
response of the phosphoproteome ([2]; after 16 hours): broad and potent response | effect on CTTN acetylation [6]: no effect

Cn1cnc2c(F)c(Nc3ccc(Br)cc3Cl)c(C(=O)NOCCO)cc21 [selumetinib]
ERK phosphorylation [16]: abrogated ERK phosphorylation | phosphorylation of the AKT substrate BAD at S99 [16]: induced phosphorylation

CN[C@@H]1C[C@H]2O[C@@](C)([C@@H]1OC)n1c3ccccc3c3c4c(c5c6ccccc6n2c5c31)C(=O)NC4 [staurosporine]
number of regulated phosphopeptides [16]: ~2500

CC(=O)Nc1cccc(-n2c(=O)n(C3CC3)c(=O)c3c(Nc4ccc(I)cc4F)n(C)c(=O)c(C)c32)c1 [trametinib]
effect of inhibitor pre-treatment on RTX-mediated cytotoxicity [19]: clear reduction of RTX-mediated cytotoxicity

O=C(CCCCCCC(=O)Nc1ccccc1)NO [vorinostat]
effect on protein phosphorylation ([2]; within 4 hours): no noticeable effect

RTX: antibody for treatment of B-cell malignancies targeting MS4A1 (CD20)
sensitivity in viability assay [20]: sensitive | sensitivity in viability assay [21]: sensitive | sensitivity in viability assay [22]: insensitive | phosphoproteome response [23]: massive responses | phosphoproteome response [24]: massive responses | phosphoproteome response [25]: silent | downregulation of phosphorylation on the proliferation marker MKI67 [26]: > 10 x | upregulation of phosphorylation of SYK [27]: > 10 fold | increase of RFTN1 phosphorylation at S467 ([28]; SU-DHL-4, within 2 min): 10 fold | increase of RFTN1 phosphorylation at S467 ([28]; SU-DHL-4, within 5 min): 30 fold

pertuzumab: breast cancer therapeutic antibody blocking signaling by preventing HER2-HER3 dimerization
number of regulated phosphopeptides [11]: ~ 150 | number of regulated phosphopeptides [12]: ~ 30 | number of regulated phosphopeptides [13]: ~ 150
